Measured values published in patent publication US20180153840A1, “THE COMPOSITIONS OF GLYCEROL AND /OR NON-TOXIC AMINO ACIDS FOR INHIBITING AND DESTROYING BIOFILM, INCLUDING RELATED METHODS” (priority 2015, published 2018).
“Also recorded” adds a separate entry of the source.

test system: S. aureus biofilm; experiment: Bacterial biofilm inhibition assay; assay type: cell-based, Staphylococcus aureus; settings: Staphylococcus aureus, read-out: Promote B Biofilm
Method: (§1) For fungal biofilm assays, all solutions were prepared in RPMI 1640 medium. All bacterial biofilm solutions were prepared in Trypic Soy Broth (TSB), supplemented with 1% glucose (henceforth referred to as TSB-G). All subsequent procedures were performed in a manner that maintained sterility. A solution of each amino acid to be tested was prepared in weight to volume concentrations ranging from 0.1-5.0%. Amino acids were also tested in combinations. Compound solutions were homogenized with gentle agitation in the dark (4° C., 24 hours) before use.
(§2) All biofilm assays were performed using 384-well non-tissue culture treated polystyrene plates. The fungal species tested are as follows: Candida albicans, Candida guilliermondii Candida parapsilosis, Candida glabrata, Candida tropicalis and Candida dubliniensis. The bacterial species tested are as follows: Staphylococcus aureus (standard wild type and methicillin-resistant strain USA300), Escherichia coli, Pseudomonas aeruginosa and Staphylococcus epidermidis.
(§3) Bacterial strains were streaked on Blood Agar plates (5% sheep blood in Tryptic Soy Broth) and incubated at 37° C. for 24 hours. A single colony from each strain to be tested was inoculated in a TSB broth and grown for 12 hours, at 37° C. with shaking (225 rpm).
(§4) For the bacterial biofilm inhibition assays, 1 μL of saturated overnight cell culture was added to either 80 μL of TSB-G, or TSB-G supplemented with the amino acid compound solution to be tested, in a 384-well plate. The cells were allowed to adhere to the plate for 60 minutes at 37° C. without shaking. The media was carefully aspirated and 80 μL of TSB-G, or TSB-G supplemented with the amino acid compound solution was added to the plate. The plate was further incubated for 24 hours at 37° C. without shaking. Media was carefully aspirated and the biofilm was measured for bacterial cell concentration by optical density at 600 nm. Eight or twelve replicates were performed for each tested condition and the reported values were normalized to the control (TSB-G media only).

SMILES | activation at 1 % [%]
N=C(N)NCCC[C@H](N)C(=O)O [Arginine, L-arginine] | 10 to 30
NC(=O)NCCC[C@H](N)C(=O)O [Citrulline, L-citrulline] | 10 to 30
NCCCC[C@H](N)C(=O)O [Lysine, L-lysine] | 10 to 30
N[C@@H](Cc1c[nH]c2ccccc12)C(=O)O [Tryptophan, L-tryptophan] | 10 to 30

same assay, conditions: Staphylococcus aureus; sustained inhibition assay; S. aureus; 1% amino acid; p≤0.001; read-out: Promote B Biofilm

SMILES | activation at 1 % [%]
NC(=O)C[C@H](N)C(=O)O [Asparagine, L-asparagine] | 10 to 30
NCC(=O)O [Glycine, L-glycine] | 10 to 30
CC(C)C[C@H](N)C(=O)O [Leucine, L-leucine] | 10 to 30
CSCC[C@H](N)C(=O)O [Methionine, L-methionine] | 10 to 30
N[C@@H](Cc1ccccc1)C(=O)O [Phenylalanine, L-phenylalanine] | 10 to 30
N[C@@H](CO)C(=O)O [Serine, L-serine] | 10 to 30
NCCS(=O)(=O)O [Taurine, L-taurine] | 10 to 30
C[C@@H](O)[C@H](N)C(=O)O [Threonine, L-threonine] | 10 to 30

same assay, conditions: sustained inhibition assay; S. aureus; 1% amino acid; p≤0.001

SMILES | Reduce B Biofilm
NC(CCCC(=O)O)C(=O)O (centres unmarked) [2 Aminoadipic Acid, 2-aminoadipic acid] | • (a single dot (●) signifies an effect in a range of about 10 to about 30% change)
NCCC(=O)O [Beta-Alanine, Beta-alanine] | • (a single dot (●) signifies an effect in a range of about 10 to about 30% change)
NCCOP(=O)(O)O [Phosphoethanolamine, O-phosphoethanolamine] | • (a single dot (●) signifies an effect in a range of about 10 to about 30% change)

test system: S. aureus biofilm; experiment: Bacterial biofilm disruption assay; assay type: cell-based; settings: Staphylococcus aureus, read-out: Promote B Biofilm
Method: as §1, §2, §3
(§5) For the bacterial biofilm disruption assays, 80 μL of TSB-G was added to the plate, along with 1 μL of overnight cell culture. The cells were allowed to adhere to the plate for 60 minutes at 37° C. without shaking. The media was carefully aspirated and 80 μL of TSB-G was added to the plate. The plate was further incubated for 24 hours at 37° C. without shaking. Media was carefully aspirated from the mature biofilm and 80 μL of TSB-G, or TSB-G supplemented with the amino acid to be tested, was gently added to the plate. The plate was further incubated for 24 hours at 37° C. without shaking. Media was aspirated and the biofilm was measured for bacterial cell concentration by optical density at 600 nm. Twelve replicates were performed for each tested condition and the reported values were normalized to the control (TSB-G media only).

SMILES | activation at 1 % [%]
N=C(N)NCCC[C@H](N)C(=O)O [Arginine, L-arginine] | 10 to 30
NC(=O)NCCC[C@H](N)C(=O)O [Citrulline, L-citrulline] | 10 to 30
NCCCC[C@H](N)C(=O)O [Lysine, L-lysine] | 10 to 30

same assay, conditions: Staphylococcus aureus; disruption assay; S. aureus; 1% amino acid; p≤0.001; read-out: Promote B Biofilm

SMILES | activation at 1 % [%]
C[C@H](N)C(=O)O [Alanine, L-alanine] | 10 to 30
NCC(=O)O [Glycine, L-glycine] | 10 to 30
CC[C@H](C)[C@H](N)C(=O)O [Isoleucine, L-isoleucine] | 10 to 30
CC(C)C[C@H](N)C(=O)O [Leucine, L-leucine] | 10 to 30
NCCC[C@H](N)C(=O)O [Ornithine, L-ornithine] | 10 to 30
N[C@@H](Cc1ccccc1)C(=O)O [Phenylalanine, L-phenylalanine] | 10 to 30
O=C(O)[C@@H]1CCCN1 [Proline, L-proline] | 10 to 30
N[C@@H](CO)C(=O)O [Serine, L-serine] | 10 to 30
NCCS(=O)(=O)O [Taurine, L-taurine] | 10 to 30

same assay, conditions: Staphylococcus aureus; disruption assay; S. aureus; 1% amino acid; p≤0.001; read-out: Reduce B Biofilm

SMILES | inhibition at 1 % [%]
NC(CCCC(=O)O)C(=O)O (centres unmarked) [2 Aminoadipic Acid, 2-aminoadipic acid] | 10 to 30
NCCOP(=O)(O)O [Phosphoethanolamine, O-phosphoethanolamine] | 10 to 30

test system: fungal biofilms; experiment: Fungal biofilm assays (sustained inhibition and/or disruption); assay type: cell-based, Candida albicans; settings: administered individually; at least one of the two assays (sustained inhibition and/or disruption)
Method: as §1, §2
(§6) Fungal strains were streaked on Yeast Peptone Dextrose (YPD) agar plates and incubated at 30° C. for 48 hours. A single colony from each strain to be tested was inoculated into YPD broth and grown for 12 hours, at 30° C., shaking at 225 rpm. For the fungal biofilm inhibition assay, 1 μl of saturated overnight cell culture was added to either 80 μL of RPMI-1640 or RPMI-1640 supplemented with the amino acid compound solution to be tested, in a 384-well plate. The cells were allowed to adhere to the plate for 90 minutes at 37° C. with shaking (350 rpm). Loosely bound cells were washed once with phosphate buffered saline (PBS) and 80 ul of RPMI-1640, or RPMI-1640 supplemented with the amino acid compound solution was added to the plate. The plate was further incubated for 24 hours at 37° C. with shaking (350 rpm). Media was carefully aspirated and the biofilm was measured for fungal cell concentration by optical density at 600 nm. Twelve replicates were performed for each tested condition and the reported values were normalized to the control (RPMI-1640 media only).
(§7) For the fungal biofilm disruption assays, 80 μL of RPMI-1640 was added to the plate, along with 1 μL of overnight cell culture. The cells were allowed to adhere to the plate for 90 minutes at 37° C. with shaking (350 rpm). Loosely bound cells were washed once with PBS and 80 μL of RPMI-1640 was added to the plate. The plate was further incubated for 24 hours at 37° C. with shaking (350 rpm). Media was carefully aspirated from the mature biofilm and 80 μL of RPMI-1640, or RPMI-1640 supplemented with the amino acid compound solution to be tested, was gently added to the plate. The plate was further incubated for 24 hours at 37° C. with shaking (350 rpm). Media was carefully aspirated and the biofilm was measured for fungal cell concentration by optical density at 600 nm. Twelve replicates were performed for each tested condition and the reported values are normalized to the control (RPMI-1640 media only).

SMILES | anti-biofilm properties against fungal biofilms
N[C@@H](CCS)C(=O)O [Homocysteine, L-homocysteine] | anti-biofilm properties against fungal biofilms

test system: bacterial biofilms; experiment: Bacterial biofilm assays (sustained inhibition and/or disruption); assay type: cell-based, Staphylococcus aureus; settings: based on the two assays (sustained inhibition and/or disruption)
Method: as §1, §2, §3, §4, §5

SMILES | support (improve) bacterial biofilm growth
C[C@H](N)C(=O)O [Alanine, L-alanine] | support (improve) bacterial biofilm growth
N=C(N)NCCC[C@H](N)C(=O)O [Arginine, L-arginine] | support (improve) bacterial biofilm growth
NC(=O)C[C@H](N)C(=O)O [Asparagine, L-asparagine] | support (improve) bacterial biofilm growth
NC(=O)NCCC[C@H](N)C(=O)O [Citrulline, L-citrulline] | support (improve) bacterial biofilm growth
NCC(=O)O [Glycine, L-glycine] | support (improve) bacterial biofilm growth
CC[C@H](C)[C@H](N)C(=O)O [Isoleucine, L-isoleucine] | support (improve) bacterial biofilm growth
CC(C)C[C@H](N)C(=O)O [Leucine, L-leucine] | support (improve) bacterial biofilm growth
NCCCC[C@H](N)C(=O)O [Lysine, L-lysine] | support (improve) bacterial biofilm growth
CSCC[C@H](N)C(=O)O [Methionine, L-methionine] | support (improve) bacterial biofilm growth
NCCC[C@H](N)C(=O)O [Ornithine, L-ornithine] | support (improve) bacterial biofilm growth
N[C@@H](Cc1ccccc1)C(=O)O [Phenylalanine, L-phenylalanine] | support (improve) bacterial biofilm growth
O=C(O)[C@@H]1CCCN1 [Proline, L-proline] | support (improve) bacterial biofilm growth
N[C@@H](CO)C(=O)O [Serine, L-serine] | support (improve) bacterial biofilm growth
NCCS(=O)(=O)O [Taurine, L-taurine] | support (improve) bacterial biofilm growth
C[C@@H](O)[C@H](N)C(=O)O [Threonine, L-threonine] | support (improve) bacterial biofilm growth
N[C@@H](Cc1c[nH]c2ccccc12)C(=O)O [Tryptophan, L-tryptophan] | support (improve) bacterial biofilm growth

same assay, conditions: individually, about 0.1 to about 5.0% weight to volume (cystathionine 0.2%); at least one of the two assays

SMILES | anti-biofilm properties against bacterial biofilms
NC(CCCC(=O)O)C(=O)O (centres unmarked) [2 Aminoadipic Acid, 2-aminoadipic acid] | anti-biofilm properties against bacterial biofilms
NCCC(=O)O [Beta-Alanine, Beta-alanine] | anti-biofilm properties against bacterial biofilms
N[C@@H](CCS)C(=O)O [Homocysteine, L-homocysteine] | anti-biofilm properties against bacterial biofilms
NCCOP(=O)(O)O [Phosphoethanolamine, O-phosphoethanolamine] | anti-biofilm properties against bacterial biofilms

test system: bacterial and fungal biofilms; experiment: In vitro testing on bacterial and fungal biofilms; assay type: cell-based; settings: both assays (sustained inhibition and disruption)
Method: as §1, §2, §6, §7, §3
as §4, with “nm.” for “nm. Eight or twelve replicates were performed for each tested condition and the reported values were normalized to the control (TSB-G media only).”

SMILES | neutral, effect on bacterial or fungal biofilms
CCC(N)C(=O)O (centres unmarked) [2 Aminobutyric Acid, 2-aminobutyric acid] | no effect on bacterial or fungal biofilms
NC(=O)CC[C@H](N)C(=O)O [Glutamine, L-glutamine] | no effect on bacterial or fungal biofilms
N[C@@H](Cc1c[nH]cn1)C(=O)O [Histidine, L-histidine] | no effect on bacterial or fungal biofilms
N[C@@H](Cc1ccc(O)cc1)C(=O)O [Tyrosine, L-tyrosine] | no effect on bacterial or fungal biofilms

same assay, conditions: in vitro

SMILES | effect on bacterial and fungal biofilm (in words)
C[C@H](N)C(=O)O [Alanine, L-alanine] | promote bacterial and fungal biofilm
N=C(N)NCCC[C@H](N)C(=O)O [Arginine, L-arginine] | promote bacterial and fungal biofilm
NCC(=O)O [Glycine, L-glycine] | promote bacterial and fungal biofilm
CC[C@H](C)[C@H](N)C(=O)O [Isoleucine, L-isoleucine] | promote bacterial and fungal biofilm
CC(C)C[C@H](N)C(=O)O [Leucine, L-leucine] | promote bacterial and fungal biofilm
NCCCC[C@H](N)C(=O)O [Lysine, L-lysine] | promote bacterial and fungal biofilm
CSCC[C@H](N)C(=O)O [Methionine, L-methionine] | promote bacterial and fungal biofilm
N[C@@H](Cc1ccccc1)C(=O)O [Phenylalanine, L-phenylalanine] | promote bacterial and fungal biofilm
O=C(O)[C@@H]1CCCN1 [Proline, L-proline] | promote bacterial and fungal biofilm
N[C@@H](CO)C(=O)O [Serine, L-serine] | promote bacterial and fungal biofilm
C[C@@H](O)[C@H](N)C(=O)O [Threonine, L-threonine] | promote bacterial and fungal biofilm
N[C@@H](Cc1c[nH]c2ccccc12)C(=O)O [Tryptophan, L-tryptophan] | promote bacterial and fungal biofilm
N[C@@H](Cc1ccc(O)cc1)C(=O)O [Tyrosine, L-tyrosine] | neutral effect on biofilm
OCC(O)CO [glycerol] | no measurable effect; also recorded: not found to have antibiofilm effect
